Results reported in patent US8541670B2, “Compositions and methods for inhibiting tumor cell growth” (priority 2007, dated 2013).
Where no end group is shown, it is not given here. red fluorescent dye = not defined here

Columns and labels:
[1] = tested on: PI3K[…]; test: In vitro kinase assay PI3K[…]; assay type: biochemical; conditions: ten times higher concentration than 0.1 μM
Protocol: (§1) As a specific substrate, the phosphorylation level of GSK-3[…] at Ser-9 was also evaluated. […] The decrease was specific to the AKT phosphorylation site on GSK-3[…] at Ser-9, since a change in the phosphorylation level of GSK-3[…] at Tyr-216 or GSK-3[…] at Tyr-279 was not observed. Moreover, the in vivo reduction of the phosphorylation of AKT substrates was more obvious at the injection site, since a significant change in the phosphorylation of AKT substrates in the frontal cortex or cerebellum between the two hemispheres was not observed. […] To test the specificity/selectivity of ZaTa as the inhibitor of AKT1 versus the other major kinases, a series of in vitro kinase assays was performed at IC50 for AKT1 and at ten times higher concentrations. A panel of the following 32 kinases was first tested in vitro using the active form of each kinase and a specific substrate: AKT2, AKT3, PKA, PKC[…], PKC, PI3K[…], PI3K[…], PI3K, SGK, PAK2, PAK3, SAPK2/p38, Abl, CaMKII, CDK1/cyclinB, CDK5/p35, CK1, CK2, CSK, GSK3[…], GSK3[…], JNK1[…]1, MAPK1, p70S6K, PDGFR[…], PDGFR[…], PDK1, PKG1[…], TrkB, JAK2, JAK3, and Syk. […] However, at ten times higher concentration, ZaTa inhibited AKT2 (63%), PI3K[…] (72%), p70S6K (64%), SGK (73%), PAK3 (83%), JAK3 (79%), TrkB (84%), and Abl (42%). […]

[2] = target: TrkB (Homo sapiens, UniProt Q16620); test: In vitro kinase assay TrkB; assay type: biochemical; conditions: ten times higher concentration than 0.1 μM
Protocol: as §1

[3] = target: Abl (Homo sapiens, UniProt P00519); test: In vitro kinase assay Abl; assay type: biochemical; conditions: ten times higher concentration than 0.1 μM
Protocol: as §1

[4] = target: T1, JAK3 (Homo sapiens, UniProt P52333); test: Cell-based kinase assay, phosphorylation of intracellular substrate (Tyr-1022/1023 JAK1)
T1 construct: endogenous in cells
T1 sequence (P52333 1-1124): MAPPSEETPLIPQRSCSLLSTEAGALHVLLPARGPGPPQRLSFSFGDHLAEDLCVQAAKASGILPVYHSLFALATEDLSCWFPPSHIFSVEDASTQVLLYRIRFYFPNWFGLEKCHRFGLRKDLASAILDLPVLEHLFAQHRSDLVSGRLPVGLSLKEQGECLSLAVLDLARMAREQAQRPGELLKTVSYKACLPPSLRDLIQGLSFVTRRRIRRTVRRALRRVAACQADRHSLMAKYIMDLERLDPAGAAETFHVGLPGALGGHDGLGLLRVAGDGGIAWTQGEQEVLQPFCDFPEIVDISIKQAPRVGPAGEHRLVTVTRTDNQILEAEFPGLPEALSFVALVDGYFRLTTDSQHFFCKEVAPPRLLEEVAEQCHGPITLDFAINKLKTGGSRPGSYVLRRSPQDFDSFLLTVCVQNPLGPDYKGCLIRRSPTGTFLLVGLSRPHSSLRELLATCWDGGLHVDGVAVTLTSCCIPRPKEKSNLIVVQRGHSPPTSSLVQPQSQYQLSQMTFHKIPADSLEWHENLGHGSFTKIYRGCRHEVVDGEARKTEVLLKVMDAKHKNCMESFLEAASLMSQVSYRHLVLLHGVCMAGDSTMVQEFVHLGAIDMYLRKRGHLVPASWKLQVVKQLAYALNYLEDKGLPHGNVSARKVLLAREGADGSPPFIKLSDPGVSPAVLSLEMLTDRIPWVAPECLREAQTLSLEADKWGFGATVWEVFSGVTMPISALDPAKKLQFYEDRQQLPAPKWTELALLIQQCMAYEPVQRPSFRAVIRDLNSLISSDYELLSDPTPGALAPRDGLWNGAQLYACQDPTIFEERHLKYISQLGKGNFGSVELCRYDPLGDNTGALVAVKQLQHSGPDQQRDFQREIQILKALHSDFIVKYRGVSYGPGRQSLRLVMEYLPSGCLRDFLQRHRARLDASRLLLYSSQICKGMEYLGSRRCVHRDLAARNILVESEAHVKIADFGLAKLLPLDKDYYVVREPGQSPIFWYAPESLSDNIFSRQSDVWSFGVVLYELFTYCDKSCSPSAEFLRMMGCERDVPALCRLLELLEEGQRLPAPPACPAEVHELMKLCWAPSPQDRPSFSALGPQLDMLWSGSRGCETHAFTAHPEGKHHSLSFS
Protocol: As a specific substrate, the phosphorylation level of GSK-3[…] at Ser-9 was also evaluated. […] The decrease was specific to the AKT phosphorylation site on GSK-3[…] at Ser-9, since a change in the phosphorylation level of GSK-3[…] at Tyr-216 or GSK-3[…] at Tyr-279 was not observed. Moreover, the in vivo reduction of the phosphorylation of AKT substrates was more obvious at the injection site, since a significant change in the phosphorylation of AKT substrates in the frontal cortex or cerebellum between the two hemispheres was not observed. […] To test the specificity/selectivity of ZaTa as the inhibitor of AKT1 versus the other major kinases, a series of in vitro kinase assays was performed at IC50 for AKT1 and at ten times higher concentrations. […]
Phosphorylation sites for kinases analyzed herein included Ser-235/236 S6 (a substrate for p70S6K), Tyr-207 CRKL (a substrate for Abl; Zipfel, et al. (2004) supra), Ser-241 PDK1 (a substrate for PI3K), Tyr-1022/1023 JAK1 (a substrate for JAK3; Wang, et al. (2003) supra), Ser-421 Huntingtin (a substrate for SGK; Rangone, et al. (2004) supra), Tyr-783 PLC (a substrate for TrkB; Middlemas, et al. (1994) supra), and Ser-338 cRaf (a substrate for PAK3; King, et al. (1998) supra).

TrkB, sequence (Q16620 32-822, species assumed): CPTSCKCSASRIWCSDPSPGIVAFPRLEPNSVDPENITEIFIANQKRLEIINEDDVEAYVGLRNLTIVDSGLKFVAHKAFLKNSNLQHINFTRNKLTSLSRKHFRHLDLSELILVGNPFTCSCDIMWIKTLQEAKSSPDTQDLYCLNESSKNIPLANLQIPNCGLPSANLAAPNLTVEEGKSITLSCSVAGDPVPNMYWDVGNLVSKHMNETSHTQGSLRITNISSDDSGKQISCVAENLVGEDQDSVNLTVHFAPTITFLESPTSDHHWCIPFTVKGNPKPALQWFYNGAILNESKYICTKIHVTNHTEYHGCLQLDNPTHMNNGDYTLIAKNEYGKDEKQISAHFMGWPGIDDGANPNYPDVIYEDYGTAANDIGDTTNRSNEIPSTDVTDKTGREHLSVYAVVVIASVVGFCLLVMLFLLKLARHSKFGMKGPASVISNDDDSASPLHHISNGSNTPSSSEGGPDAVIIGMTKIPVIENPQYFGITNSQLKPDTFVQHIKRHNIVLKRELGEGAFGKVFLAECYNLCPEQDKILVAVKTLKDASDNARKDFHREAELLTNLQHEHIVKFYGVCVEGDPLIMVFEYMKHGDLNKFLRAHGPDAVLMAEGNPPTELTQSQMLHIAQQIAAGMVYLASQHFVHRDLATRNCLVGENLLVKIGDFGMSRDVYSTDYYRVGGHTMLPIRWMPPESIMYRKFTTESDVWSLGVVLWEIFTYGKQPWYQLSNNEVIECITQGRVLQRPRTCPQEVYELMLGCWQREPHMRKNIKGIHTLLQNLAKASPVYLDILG
Abl, sequence (P00519 whole entry, species assumed): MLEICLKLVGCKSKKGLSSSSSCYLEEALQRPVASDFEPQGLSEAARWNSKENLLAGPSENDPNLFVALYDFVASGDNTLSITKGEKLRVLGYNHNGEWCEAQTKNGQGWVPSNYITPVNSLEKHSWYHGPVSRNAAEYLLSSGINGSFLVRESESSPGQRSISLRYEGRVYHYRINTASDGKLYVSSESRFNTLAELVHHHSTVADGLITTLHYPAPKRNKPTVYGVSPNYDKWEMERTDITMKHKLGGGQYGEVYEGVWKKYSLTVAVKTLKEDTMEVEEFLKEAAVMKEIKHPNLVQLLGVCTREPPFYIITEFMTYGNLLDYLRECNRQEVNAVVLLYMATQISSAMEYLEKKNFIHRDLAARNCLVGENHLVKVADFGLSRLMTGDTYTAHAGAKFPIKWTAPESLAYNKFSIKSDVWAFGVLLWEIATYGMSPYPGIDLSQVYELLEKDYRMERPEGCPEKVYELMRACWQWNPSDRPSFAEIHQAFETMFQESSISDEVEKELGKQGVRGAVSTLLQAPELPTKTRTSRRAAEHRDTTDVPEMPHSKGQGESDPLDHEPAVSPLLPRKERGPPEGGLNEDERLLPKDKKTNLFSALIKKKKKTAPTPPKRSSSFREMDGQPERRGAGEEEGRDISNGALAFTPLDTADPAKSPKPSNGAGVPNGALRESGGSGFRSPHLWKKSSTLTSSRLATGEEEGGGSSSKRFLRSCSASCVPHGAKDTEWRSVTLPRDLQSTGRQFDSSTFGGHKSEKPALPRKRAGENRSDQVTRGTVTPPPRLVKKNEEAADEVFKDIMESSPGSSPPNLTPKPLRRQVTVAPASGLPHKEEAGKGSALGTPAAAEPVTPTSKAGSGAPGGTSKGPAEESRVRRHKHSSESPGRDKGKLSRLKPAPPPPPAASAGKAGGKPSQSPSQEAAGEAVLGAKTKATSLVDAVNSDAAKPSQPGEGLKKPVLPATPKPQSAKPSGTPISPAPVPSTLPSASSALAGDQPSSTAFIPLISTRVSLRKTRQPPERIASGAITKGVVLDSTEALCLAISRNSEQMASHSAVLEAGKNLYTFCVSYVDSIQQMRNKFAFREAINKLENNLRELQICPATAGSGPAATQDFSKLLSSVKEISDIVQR

Row | Substance | inhibition of PI3K[…] [1] [%] | inhibition of TrkB [2] [%] | inhibition of Abl [3] [%] | inhibition of JAK3 in cells [4]
1 | AKRVKGRTWTLCGTPEY [ZaTa] | 72 | 84 | 42 | 
2 | labeled ZaTa: ZaTa peptide labeled with a red fluorescent dye at its N-terminus ({red fluorescent dye}-AKRVKGRTWTLCGTPEY; reading uncertain) |  |  |  | did not cause inhibition
